Some test systems named below: 786-0; A549; ACHN; CAKI-1; HCC 2998; HCT-116; HT-29; M14; MOLT-4; SF-268; SF-295; SK-MEL-28; SK-MEL-5; SW-620; TK-10; UACC-257.
Test in all cases: DTP human tumour cell line panel, 48 h

SMILES strings stand for the structures.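 A five-concentration, 48-hour dose response in 96-well plates underlies each endpoint, interpolated linearly between surrounding concentrations. Abbreviation: GI50, concentration required for 50% inhibition of growth.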 Calls of active or inactive are those of the source. Cut-off read from the data, not from the text of the source: active = GI50 up to about 1.1 µM and inactive = higher.

With `Cc1cc(Br)ccc1NC1=CC(=O)C(=O)c2ccccc21`, the GI50 (commonly the concentration at which growth is held to half of that of the control) was 38.5 µM (inactive) with 786-0; 39.1 µM (inactive) in the experiment with A549; 36.4 µM (inactive) in the experiment with ACHN; 28.1 µM (inactive) in the experiment on CAKI-1; 62.1 µM (inactive) in the experiment on HCC 2998; 52.7 µM (inactive) in the experiment with HCT-116. For the same compound, the GI50 in the experiment with HT-29 is 51.2 µM (inactive); in the experiment with M14 it was 52.1 µM (inactive); in the experiment with MOLT-4, 39.4 µM (inactive); in the experiment with SF-268, 47.4 µM (inactive); in the experiment on SF-295, 38.5 µM (inactive); in the experiment on SK-MEL-28, 45.3 µM (inactive). In addition, the GI50 in the experiment on SK-MEL-5 was 20 µM (inactive); in the experiment with SW-620 it was 29.9 µM (inactive); in the experiment on TK-10, 99.8 µM (inactive); in the experiment on UACC-257 it was 15.9 µM (inactive).
Take `CN(C)CCCN1N=Nc2cccc3cccc1c23`: the GI50 is 17.9 µM (inactive) in the experiment on 786-0; > 100 µM (inactive) in the experiment on A549; 56.1 µM (inactive) with ACHN; > 71.3 µM (inactive) in the experiment with CAKI-1; > 59 µM (inactive) in the experiment with HCC 2998; 28.8 µM (inactive) in the experiment on HCT-116. The GI50 in the experiment with HT-29 was 33.3 µM (inactive); with M14, > 43.4 µM (inactive); in the experiment on MOLT-4 it was 29 µM (inactive); in the experiment with SF-268 it was > 85.9 µM (inactive); in the experiment on SF-295, > 90.8 µM (inactive); in the experiment on SK-MEL-28 it was > 100 µM (inactive). Moreover, the GI50 was > 84.9 µM (inactive) with SK-MEL-5, 24.3 µM (inactive) in the experiment with SW-620, > 100 µM (inactive) with TK-10 and > 91.8 µM (inactive) with UACC-257.
Consider `C=CCn1c(=S)sc2c(C(=O)OCC)c3c(C)cc(C)cn3c2c1=O`, for which the GI50 was 61.1 µM (inactive) in the experiment on 786-0; > 100 µM (inactive) in the experiment with A549; > 100 µM (inactive) in the experiment with ACHN; > 100 µM (inactive) with CAKI-1; > 100 µM (inactive) in the experiment with HCC 2998; > 100 µM (inactive) in the experiment on HCT-116. Moreover, the GI50 with HT-29 was > 100 µM (inactive); with M14 it was > 100 µM (inactive); in the experiment on MOLT-4 it was > 100 µM (inactive); in the experiment with SF-268, 67.5 µM (inactive); in the experiment with SF-295, 86.7 µM (inactive); in the experiment on SK-MEL-28, > 100 µM (inactive). The GI50 in the experiment on SK-MEL-5, in the experiment with SW-620, in the experiment on TK-10 and with UACC-257 was > 100 µM (inactive) throughout.
On to `Nc1ncnc2c1ncn2CCCC(c1ccccc1)P(=O)(O)O` (stereo unspecified), for which the GI50 in the experiment with 786-0 is > 100 µM (inactive); with A549, > 100 µM (inactive); in the experiment on ACHN, > 100 µM (inactive); in the experiment on CAKI-1 it was 17 µM (inactive); in the experiment on HCC 2998 it was > 100 µM (inactive); with HCT-116 it was > 100 µM (inactive). Further, the GI50 in the experiment on HT-29, in the experiment with SF-268, with SF-295, in the experiment with SK-MEL-28, in the experiment on SK-MEL-5 and in the experiment on SW-620 was > 100 µM (inactive) each time. The GI50 in the experiment with TK-10 and in the experiment with UACC-257 was > 100 µM (inactive) each time.
`Cc1nc(NC(=S)NC(=O)c2ccc(Cl)c(Cl)c2)sc1C(=O)/C=C/c1ccccc1[N+](=O)[O-]`: the GI50 with 786-0 was 17.8 µM (inactive); in the experiment on A549 it was 25.3 µM (inactive); in the experiment on ACHN, 24.4 µM (inactive); with CAKI-1, 21.1 µM (inactive); with HCC 2998, 33.3 µM (inactive); in the experiment with HCT-116, 20.7 µM (inactive). In addition, the GI50 in the experiment with HT-29 was 21.3 µM (inactive); with M14 it was 23.8 µM (inactive); in the experiment on MOLT-4, 19.8 µM (inactive); in the experiment on SF-268 it was 39.4 µM (inactive); with SF-295, 24.2 µM (inactive); with SK-MEL-28 it was 25.4 µM (inactive). Moreover, the results for the GI50 with SW-620, in the experiment on TK-10 and with UACC-257 were 20.2 µM (inactive), 36.1 µM (inactive) and 30.1 µM (inactive), respectively.
Take `O=C1/C(=C/c2ccccc2)CN(C(=O)Oc2ccc([N+](=O)[O-])cc2)C/C1=C\c1ccccc1`: the GI50 was 4.49 µM (inactive) in the experiment with 786-0; > 10 µM (inactive) in the experiment with A549; 6.65 µM (inactive) in the experiment on ACHN; > 10 µM (inactive) with CAKI-1; 2.74 µM (inactive) in the experiment on HCC 2998; 0.506 µM (active) with HCT-116. Moreover, the GI50 in the experiment on HT-29 is 1.42 µM (inactive); in the experiment with M14, 0.908 µM (active); in the experiment with MOLT-4, 0.649 µM (active); in the experiment with SF-268, 5.09 µM (inactive); with SF-295, 1.33 µM (inactive); in the experiment with SK-MEL-28 it was 3.48 µM (inactive). For the same compound, the GI50 with SK-MEL-5 was 3.64 µM (inactive); with SW-620 it was 0.59 µM (active); in the experiment on TK-10 it was > 10 µM (inactive); in the experiment on UACC-257 it was 5.18 µM (inactive).
In the case of `O=[N+]([O-])c1ccc(-c2ccc(/C=N/n3c(S)nnc3-c3ccc(Cl)cc3)o2)cc1`, the GI50 is 19.2 µM (inactive) with 786-0; 28 µM (inactive) with A549; 26 µM (inactive) in the experiment with ACHN; > 39 µM (inactive) with CAKI-1; > 72.4 µM (inactive) in the experiment on HCC 2998; 17.7 µM (inactive) with HCT-116. The GI50 in the experiment with HT-29 was 22 µM (inactive); with M14, 16.1 µM (inactive); in the experiment on MOLT-4 it was 15 µM (inactive); in the experiment with SF-268, 24.7 µM (inactive); with SF-295 it was 24.1 µM (inactive); in the experiment with SK-MEL-28, 16.6 µM (inactive). Also, the GI50 is 20.5 µM (inactive) in the experiment with SK-MEL-5, 29 µM (inactive) with SW-620, 31 µM (inactive) in the experiment on TK-10 and > 57.5 µM (inactive) with UACC-257.
Consider `CC1(C)CC[C@]2(C(=O)O)CCC3(C)C(=CCC4[C@@]5(C)CC[C@H](OC6OCC(O)C(O)C6OC6OC(CO)C(O)C(O)C6O)C(C)(C)C5CC[C@]43C)C2C1` (stereo partly specified), for which the GI50 with 786-0 was 2.04 µM (inactive); in the experiment on A549, 1.86 µM (inactive); with ACHN, 1.94 µM (inactive); in the experiment on CAKI-1, 1.66 µM (inactive); with HCC 2998 it was 1.71 µM (inactive); with HCT-116, 2.81 µM (inactive). Moreover, the GI50 with HT-29 was 2.46 µM (inactive); in the experiment with M14, 1.87 µM (inactive); with MOLT-4 it was 2.98 µM (inactive); with SF-268 it was 2.4 µM (inactive); in the experiment on SF-295 it was 1.79 µM (inactive); with SK-MEL-28, 2.33 µM (inactive). For the same compound, the GI50 in the experiment with SK-MEL-5 is 3.98 µM (inactive); in the experiment on SW-620 it was 2.15 µM (inactive); with TK-10, 2.04 µM (inactive); in the experiment on UACC-257 it was 2.94 µM (inactive).
In the case of `COc1ccccc1NC(=O)C(CC(C(=O)Nc1ccccc1OC)/C(C)=N/NC(=O)c1ccccc1O)/C(C)=N/NC(=O)c1ccccc1O` (stereo unspecified), the GI50 is > 100 µM (inactive) in the experiment on 786-0; 82.4 µM (inactive) in the experiment with A549; 98.6 µM (inactive) in the experiment on ACHN; 67 µM (inactive) with CAKI-1; > 100 µM (inactive) in the experiment on HCC 2998; > 100 µM (inactive) in the experiment with HT-29. The GI50 in the experiment with M14 was > 100 µM (inactive); with MOLT-4, 47.5 µM (inactive); in the experiment on SF-268, > 100 µM (inactive); in the experiment on SF-295, 59.7 µM (inactive); in the experiment on SK-MEL-28, > 100 µM (inactive); in the experiment with SK-MEL-5, 47 µM (inactive). Further, the values for the GI50 with SW-620, in the experiment on TK-10 and with UACC-257 were 88.5 µM (inactive), > 100 µM (inactive) and > 100 µM (inactive), respectively.
Take `Cc1cc(N(CCC#N)CCC#N)ccc1/C=C/C(=O)Nc1cccc(Cl)c1`: the GI50 with 786-0 is > 100 µM (inactive); in the experiment on A549, > 100 µM (inactive); in the experiment on ACHN it was 57.3 µM (inactive); with CAKI-1, > 100 µM (inactive); in the experiment on HCC 2998, > 100 µM (inactive); with HCT-116, > 100 µM (inactive). The GI50 with HT-29, with M14, in the experiment on MOLT-4, with SF-268, in the experiment on SF-295 and with SK-MEL-28 was > 100 µM (inactive) in each case. Further, the GI50 in the experiment on SK-MEL-5, in the experiment on SW-620, in the experiment on TK-10 and with UACC-257 was > 100 µM (inactive) throughout.
Turning to `Cc1ccc(Nc2nc(-c3ccc(-c4ccc([N+](=O)[O-])cc4)o3)cs2)cc1`, the GI50 with 786-0 is 68.5 µM (inactive); in the experiment with A549 it was 52.7 µM (inactive); in the experiment on ACHN it was 34 µM (inactive); in the experiment on CAKI-1, > 100 µM (inactive); in the experiment with HCC 2998, 23.4 µM (inactive); with HCT-116 it was 67.1 µM (inactive). In addition, the GI50 in the experiment on HT-29 was 28.4 µM (inactive); with M14 it was > 100 µM (inactive); in the experiment on MOLT-4, 4.54 µM (inactive); in the experiment with SF-268, > 100 µM (inactive); in the experiment with SF-295, 33.2 µM (inactive); in the experiment on SK-MEL-28 it was 38 µM (inactive). The GI50 in the experiment with SW-620 is 95.3 µM (inactive); with TK-10 it was 25.4 µM (inactive); with UACC-257, 21.5 µM (inactive).
Consider `CC(=O)N1CCc2[nH]c3ccccc3c2CC1`, for which the GI50 in the experiment on 786-0, with A549, in the experiment with ACHN, in the experiment with CAKI-1, in the experiment on HCC 2998 and in the experiment with HCT-116 was > 100 µM (inactive) throughout. The GI50 in the experiment on HT-29, in the experiment on M14, with MOLT-4, with SF-295, with SK-MEL-28 and in the experiment on SK-MEL-5 was > 100 µM (inactive) each time. Moreover, the GI50 in the experiment on SW-620, in the experiment with TK-10 and in the experiment on UACC-257 was > 100 µM (inactive) each time.

Values taken from ChEMBL document CHEMBL1201862, “PubChem BioAssay data set” (2004).
